Measurements: patent publication US8883745B2, “C—glycolipids with enhanced Th-1 profile” (New York University, priority 2006, dated 2014)

How the values were obtained:
IFN-γ = test: In vitro IFN-γ ELISPOT assay using PBMCs and immature DCs; format: cell-based, human; conditions: 100 ng/ml glycolipid, 22-26 hours co-culture with immature DCs
Protocol: CD14+ cells were isolated from leukopaks, using magnetic beads (Miltenyi biotec, Auburn, Calif.) coupled to an anti-CD14 monoclonal antibody. Immature dendritic cells (DCs) were then generated from the CD14+ cells after a three-day incubation in the presence of 300 U/ml GM-CSF (R&D systems, Minneapolis, Minn.) and 100 U/ml IL-4 (R&D systems, Minneapolis, Minn.). CD14-cells were used as Peripheral Blood Mononuclear Cells (PBMCs) for the following experiments.
96 well nitrocellulose plates (Milititer HA, Millipore) were coated with 10 μg/ml of anti-human interferon γ mAb (Mabtech, Ohio), contained in 75 μl of PBS. After overnight incubation at room temperature, the wells were washed repeatedly and blocked with culture medium for 1 hour at 37° C. Following irradiation with 3000 rads, 5×10^4 immature dendritic cells were co-cultured with 5×10^5 of syngeneic CD14− PBMCs in the presence of 100 ng/ml of various glycolipids (i.e., GCK109 [A-1 trans-conformer], GCK151 [A-1 cis-conformer], GCK127 [A-2], GCK152 [A-7], and control compounds CRONY=α-C-GalCer and KRN=α-GalCer) in the ELISPOT plate for 22-26 hours at 37° C. and 5% CO2. […] After 10 to 15 minutes, the number of spots corresponding to IFN-γ secreting cells was determined using a stereomicroscope. […]

IL-4 = test: In vitro IL-4 ELISPOT assay using PBMCs and immature DCs; format: cell-based, human; conditions: 100 ng/ml glycolipid, 22-26 hours co-culture with immature DCs

Row | SMILES | frequency of PBMCs secreting IFN-γ (ELISPOT), compared with KRN (IFN-γ) | frequency of PBMCs secreting IL-4 (ELISPOT), compared with KRN (IL-4)
1 | CCCCCCCCCCCCCC[C@@H](O)[C@@H](O)[C@H](/C=C/[C@H]1OC(CO)[C@H](O)[C@H](O)C1O)NC(=O)CCCCCCCc1ccccc1 (stereo partly shown) [A-7] | high frequency | high frequency
2 | CCCCCCCCCCCCCCCCCC/C=C\CCCCCCCCC(=O)N[C@@H](/C=C/[C@H]1OC(CO)[C@H](O)[C@H](O)C1O)[C@H](O)[C@H](O)CCCCCCCCCCCCCC (stereo partly shown) [GCK151] | high frequency | high frequency
